Measured values from PMC4770715, “LIM kinase inhibitors disrupt mitotic microtubule organization and impair tumor cell proliferation” (Oncotarget, 2015).

Legend:
Test in all cases: biochemical
Parameters in all cases: KINOMEscan active-site competition binding, percent of control (100 = no competition)
Conditions in all cases: competition binding, percent control
CAMK2G = CAMK2G (Homo sapiens, UniProt Q13555)
CDK7 = CDK7 (Homo sapiens, UniProt P50613)
CAMKK1 = CAMKK1 (Homo sapiens, UniProt Q8N5S9)
FYN = FYN (Homo sapiens, UniProt P06241)
IKK-beta = molecular target: T1, IKK-beta (Homo sapiens, UniProt O14920)
T1 construct: gene IKBKB

ANKK1 = ANKK1 (Homo sapiens, UniProt Q8NFD2)
ERK2 = molecular target: T2, ERK2 (Homo sapiens, UniProt P28482)
T2 construct: gene MAPK1

PCTK1 = molecular target: T3, PCTK1 (Homo sapiens, UniProt Q00536)
T3 construct: gene CDK16

BIKE = molecular target: T4, BIKE (Homo sapiens, UniProt Q9NSY1)
T4 construct: gene BMP2K

[1] = molecular target: T5, JAK1(JH2domain-pseudokinase) (Homo sapiens, UniProt P23458)
T5 construct: JH2domain-pseudokinase

MRCKB = molecular target: T6, MRCKB (Homo sapiens, UniProt Q9Y5S2)
T6 construct: gene CDC42BPB

SRMS = SRMS (Homo sapiens, UniProt Q9H3Y6)
HIPK1 = HIPK1 (Homo sapiens, UniProt Q86Z02)
KIT(D816H) = KIT(D816H) (Homo sapiens, UniProt P10721, D816H)
MTOR = MTOR (Homo sapiens, UniProt P42345)
PKN1 = PKN1 (Homo sapiens, UniProt Q16512)
CSNK1E = CSNK1E (Homo sapiens, UniProt P49674)
SRPK3 = SRPK3 (Homo sapiens, UniProt Q9UPE1)
ACVR2A = ACVR2A (Homo sapiens, UniProt P27037)
[2] = molecular target: T7, ABL1(F317I)-nonphosphorylated (Homo sapiens, UniProt P00519, F317I)
T7 construct: nonphosphorylated

[3] = molecular target: T8, ABL1(Q252H)-nonphosphorylated (Homo sapiens, UniProt P00519, Q252H)
T8 construct: nonphosphorylated

MAP3K3 = MAP3K3 (Homo sapiens, UniProt Q99759)
CSK = CSK (Homo sapiens, UniProt P41240)

Sequence of CSNK1E (P49674 whole entry): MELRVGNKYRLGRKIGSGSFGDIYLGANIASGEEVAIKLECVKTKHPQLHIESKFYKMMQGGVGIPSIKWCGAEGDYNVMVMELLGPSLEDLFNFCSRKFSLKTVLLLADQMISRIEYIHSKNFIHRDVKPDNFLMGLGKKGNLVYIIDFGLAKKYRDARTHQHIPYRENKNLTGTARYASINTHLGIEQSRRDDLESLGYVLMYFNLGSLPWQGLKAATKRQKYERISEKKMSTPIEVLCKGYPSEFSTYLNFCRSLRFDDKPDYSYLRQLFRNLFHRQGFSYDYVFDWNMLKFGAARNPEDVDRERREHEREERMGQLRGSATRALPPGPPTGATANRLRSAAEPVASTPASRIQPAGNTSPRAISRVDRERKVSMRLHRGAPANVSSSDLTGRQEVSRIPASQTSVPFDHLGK
T5 sequence (P23458 whole entry): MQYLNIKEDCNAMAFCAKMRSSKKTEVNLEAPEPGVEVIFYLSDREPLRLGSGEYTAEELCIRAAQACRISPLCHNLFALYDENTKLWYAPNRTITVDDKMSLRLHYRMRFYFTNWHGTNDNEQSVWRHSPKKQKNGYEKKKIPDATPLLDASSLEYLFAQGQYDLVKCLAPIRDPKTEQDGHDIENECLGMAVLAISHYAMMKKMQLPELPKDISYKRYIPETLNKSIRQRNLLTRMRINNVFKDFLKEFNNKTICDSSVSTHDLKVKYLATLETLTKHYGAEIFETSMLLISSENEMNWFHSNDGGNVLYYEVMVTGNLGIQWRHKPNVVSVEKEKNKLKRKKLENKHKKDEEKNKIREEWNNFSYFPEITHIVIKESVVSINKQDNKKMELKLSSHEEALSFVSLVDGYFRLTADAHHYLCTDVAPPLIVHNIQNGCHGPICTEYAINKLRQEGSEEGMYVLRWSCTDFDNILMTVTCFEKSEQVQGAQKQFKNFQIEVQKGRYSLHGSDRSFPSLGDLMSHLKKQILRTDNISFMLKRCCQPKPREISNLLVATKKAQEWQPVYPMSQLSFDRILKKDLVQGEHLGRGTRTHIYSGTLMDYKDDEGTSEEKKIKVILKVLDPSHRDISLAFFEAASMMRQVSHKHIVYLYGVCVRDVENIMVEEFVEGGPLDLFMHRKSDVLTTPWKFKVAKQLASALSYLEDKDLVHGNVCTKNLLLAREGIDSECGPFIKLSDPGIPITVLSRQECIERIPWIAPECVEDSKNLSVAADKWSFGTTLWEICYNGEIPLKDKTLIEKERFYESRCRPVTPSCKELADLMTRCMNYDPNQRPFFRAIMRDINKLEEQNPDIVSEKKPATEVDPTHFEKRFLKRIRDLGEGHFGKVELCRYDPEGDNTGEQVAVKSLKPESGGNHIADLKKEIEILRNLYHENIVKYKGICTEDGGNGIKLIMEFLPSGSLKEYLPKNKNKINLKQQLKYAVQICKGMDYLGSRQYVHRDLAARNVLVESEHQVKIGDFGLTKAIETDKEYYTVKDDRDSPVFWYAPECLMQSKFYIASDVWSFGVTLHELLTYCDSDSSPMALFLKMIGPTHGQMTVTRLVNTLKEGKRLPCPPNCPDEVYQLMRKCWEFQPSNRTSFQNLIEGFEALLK
T6 sequence (Q9Y5S2 whole entry): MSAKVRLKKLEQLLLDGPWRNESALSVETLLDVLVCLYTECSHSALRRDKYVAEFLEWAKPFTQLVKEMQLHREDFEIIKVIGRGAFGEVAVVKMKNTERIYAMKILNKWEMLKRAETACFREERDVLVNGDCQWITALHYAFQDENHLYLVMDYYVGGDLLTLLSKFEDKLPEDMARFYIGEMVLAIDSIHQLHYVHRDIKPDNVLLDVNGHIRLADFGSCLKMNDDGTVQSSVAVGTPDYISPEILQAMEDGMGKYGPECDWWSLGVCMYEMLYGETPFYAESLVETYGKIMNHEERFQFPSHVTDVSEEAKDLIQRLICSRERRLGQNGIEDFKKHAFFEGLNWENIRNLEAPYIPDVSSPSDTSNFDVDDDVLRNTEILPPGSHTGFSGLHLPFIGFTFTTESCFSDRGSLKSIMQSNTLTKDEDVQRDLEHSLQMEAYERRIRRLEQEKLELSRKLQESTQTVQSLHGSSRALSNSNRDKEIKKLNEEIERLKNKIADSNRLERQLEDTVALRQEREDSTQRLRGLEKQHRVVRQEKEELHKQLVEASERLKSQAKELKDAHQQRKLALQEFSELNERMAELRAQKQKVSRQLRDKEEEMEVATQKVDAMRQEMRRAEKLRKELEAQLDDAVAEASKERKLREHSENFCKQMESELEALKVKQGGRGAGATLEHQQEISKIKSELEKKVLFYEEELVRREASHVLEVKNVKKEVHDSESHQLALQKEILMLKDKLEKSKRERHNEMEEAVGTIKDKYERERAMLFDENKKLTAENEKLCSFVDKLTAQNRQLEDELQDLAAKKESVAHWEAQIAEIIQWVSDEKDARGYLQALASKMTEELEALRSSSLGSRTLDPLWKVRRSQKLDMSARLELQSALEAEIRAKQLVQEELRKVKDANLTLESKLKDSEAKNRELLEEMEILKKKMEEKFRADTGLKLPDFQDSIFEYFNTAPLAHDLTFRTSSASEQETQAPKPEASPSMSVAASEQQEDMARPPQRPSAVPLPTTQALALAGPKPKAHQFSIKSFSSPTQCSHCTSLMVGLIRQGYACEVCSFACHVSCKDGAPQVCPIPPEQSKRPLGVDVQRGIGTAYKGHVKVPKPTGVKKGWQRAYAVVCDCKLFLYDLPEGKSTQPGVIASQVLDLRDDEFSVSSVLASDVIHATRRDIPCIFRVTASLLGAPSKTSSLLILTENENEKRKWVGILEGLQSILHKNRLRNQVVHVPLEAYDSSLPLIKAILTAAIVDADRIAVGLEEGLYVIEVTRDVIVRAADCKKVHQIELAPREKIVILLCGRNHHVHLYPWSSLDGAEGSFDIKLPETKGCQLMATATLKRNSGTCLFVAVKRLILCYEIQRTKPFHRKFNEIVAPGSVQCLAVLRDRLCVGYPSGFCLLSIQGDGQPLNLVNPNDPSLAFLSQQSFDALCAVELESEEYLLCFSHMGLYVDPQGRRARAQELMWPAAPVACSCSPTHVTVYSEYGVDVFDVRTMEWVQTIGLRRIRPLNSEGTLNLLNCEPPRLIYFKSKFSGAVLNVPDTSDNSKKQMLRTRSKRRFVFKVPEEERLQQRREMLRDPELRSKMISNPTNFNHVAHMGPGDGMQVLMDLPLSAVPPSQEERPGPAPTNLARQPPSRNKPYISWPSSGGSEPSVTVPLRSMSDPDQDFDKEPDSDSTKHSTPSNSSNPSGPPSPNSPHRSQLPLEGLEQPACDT
Sequence of CDK7 (P50613 whole entry): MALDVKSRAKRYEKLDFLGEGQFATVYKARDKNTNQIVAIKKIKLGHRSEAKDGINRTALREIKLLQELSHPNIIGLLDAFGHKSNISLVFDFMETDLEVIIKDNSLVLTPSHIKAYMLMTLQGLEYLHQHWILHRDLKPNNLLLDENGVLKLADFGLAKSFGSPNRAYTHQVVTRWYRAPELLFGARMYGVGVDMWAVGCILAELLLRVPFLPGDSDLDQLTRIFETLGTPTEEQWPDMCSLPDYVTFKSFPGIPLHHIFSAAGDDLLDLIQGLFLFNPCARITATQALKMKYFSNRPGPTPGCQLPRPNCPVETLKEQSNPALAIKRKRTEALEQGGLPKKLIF
Sequence of CAMKK1 (Q8N5S9 whole entry): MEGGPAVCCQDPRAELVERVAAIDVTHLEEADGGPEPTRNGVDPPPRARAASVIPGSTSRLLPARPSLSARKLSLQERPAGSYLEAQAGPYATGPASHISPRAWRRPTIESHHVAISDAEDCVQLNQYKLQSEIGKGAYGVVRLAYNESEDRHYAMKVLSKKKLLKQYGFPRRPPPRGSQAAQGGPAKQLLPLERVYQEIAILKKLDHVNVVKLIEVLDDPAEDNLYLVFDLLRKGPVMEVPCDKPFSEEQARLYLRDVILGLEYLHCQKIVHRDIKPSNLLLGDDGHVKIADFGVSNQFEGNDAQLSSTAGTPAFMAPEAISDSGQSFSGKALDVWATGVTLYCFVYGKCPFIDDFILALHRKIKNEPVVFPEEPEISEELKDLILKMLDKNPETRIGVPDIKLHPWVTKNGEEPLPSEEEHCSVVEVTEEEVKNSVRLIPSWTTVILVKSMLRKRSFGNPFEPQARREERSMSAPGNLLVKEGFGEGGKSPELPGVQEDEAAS
Sequence of ACVR2A (P27037 whole entry): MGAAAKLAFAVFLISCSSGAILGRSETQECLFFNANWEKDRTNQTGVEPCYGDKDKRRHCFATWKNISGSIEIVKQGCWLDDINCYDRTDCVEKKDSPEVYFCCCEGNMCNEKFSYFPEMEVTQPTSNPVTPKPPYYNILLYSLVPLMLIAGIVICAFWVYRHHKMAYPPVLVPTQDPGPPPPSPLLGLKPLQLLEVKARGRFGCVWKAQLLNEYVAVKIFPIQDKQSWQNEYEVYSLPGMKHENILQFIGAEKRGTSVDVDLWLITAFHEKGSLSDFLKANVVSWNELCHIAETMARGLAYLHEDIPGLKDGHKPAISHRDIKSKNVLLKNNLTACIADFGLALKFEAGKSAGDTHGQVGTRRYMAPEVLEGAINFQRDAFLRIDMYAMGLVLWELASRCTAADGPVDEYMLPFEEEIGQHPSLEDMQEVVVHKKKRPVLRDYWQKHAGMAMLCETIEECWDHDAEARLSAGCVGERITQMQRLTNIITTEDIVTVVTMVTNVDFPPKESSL
T2 sequence (P28482 whole entry): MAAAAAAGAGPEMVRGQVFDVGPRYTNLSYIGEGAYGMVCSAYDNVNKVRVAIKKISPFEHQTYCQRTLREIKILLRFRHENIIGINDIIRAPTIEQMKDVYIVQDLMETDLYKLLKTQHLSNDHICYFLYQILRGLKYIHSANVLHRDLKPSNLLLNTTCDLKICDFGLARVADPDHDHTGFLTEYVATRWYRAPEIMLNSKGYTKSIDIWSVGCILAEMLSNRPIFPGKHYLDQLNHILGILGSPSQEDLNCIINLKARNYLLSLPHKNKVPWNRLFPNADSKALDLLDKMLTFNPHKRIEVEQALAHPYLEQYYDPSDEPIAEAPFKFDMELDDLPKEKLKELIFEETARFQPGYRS

SMILES	remaining binding at 10 µM (CAMK2G) [%]	remaining binding at 10 µM (CDK7) [%]	remaining binding at 10 µM (CAMKK1) [%]	remaining binding at 10 µM (FYN) [%]	remaining binding at 10 µM (IKK-beta) [%]	remaining binding at 10 µM (ANKK1) [%]	remaining binding at 10 µM (ERK2) [%]	remaining binding at 10 µM (PCTK1) [%]	remaining binding at 10 µM (BIKE) [%]	remaining binding at 10 µM [1] [%]	remaining binding at 10 µM (MRCKB) [%]	remaining binding at 10 µM (SRMS) [%]	remaining binding at 10 µM (HIPK1) [%]	remaining binding at 10 µM (KIT(D816H)) [%]	remaining binding at 10 µM (MTOR) [%]	remaining binding at 10 µM (PKN1) [%]	remaining binding at 10 µM (CSNK1E) [%]	remaining binding at 10 µM (SRPK3) [%]	remaining binding at 10 µM (ACVR2A) [%]	remaining binding at 10 µM [2] [%]	also measured
COc1ccc(-c2cnccc2-c2cnc(NC(=O)C(C)C)s2)c(C(F)(F)F)c1 [CRT0105446, N-{5-[3-(4-Methoxy-2-trifluoromethyl-phenyl)-pyridin-4-yl]-hiazol-2-yl}-isobutyramide]	80	5.8	82	99	88	99	100	11	100	92	93	93	100	89	64	62	42	93	74	100	remaining binding at 10 µM [3]: 83%; remaining binding at 10 µM (MAP3K3): 100%; remaining binding at 10 µM (CSK): 91%
Cc1ccc(-c2cnccc2-c2cnc(Nc3ccc(O)cc3)s2)c(Cl)c1 [CRT0105950, 4-{5-[3-(2-Chloro-4-methyl-phenyl)-pyridin-4-yl]-thiazol-2-ylamino}-phenol]	49	32	26	49	88	69	100	63	36	74	78	87	65	46	35	20	11	62	45	93	remaining binding at 10 µM [3]: 70%; remaining binding at 10 µM (MAP3K3): 20%; remaining binding at 10 µM (CSK): 71%
